Measurements as given in article PMC3532212 (PLoS ONE, 2012).

Tests used:
[1] = Plasma concentrations during escalating i.v. infusion in anesthetized rats; assay type: in vivo; details: male, Sprague Dawley, plasma, iv, anesthetized rat, FTY720 i.v.
Experimental: The cardiovascular effects of FTY720 and BAF312 were tested in anesthetized rats (180–200 g). In brief, male Sprague Dawley rats (Charles River) were anesthetized with Inactin (110 mg/kg i.p.) and a tracheotomy performed. The femoral artery and veins were catheterized for measurement of mean arterial pressure and heart rate, collection of blood samples at 20-min intervals (0.2 mL/sample), and for compound infusion/hydration as previously described, [24]; blood samples were also withdrawn in vehicle-treated control rats. FTY720, infused as a hydrochloride salt (0.1, 0.3, 1.0 mg/kg/20-min free base equivalent solubilized in a 100% PEG-400 vehicle), or BAF312 (0.5, 1.5, 5.0 mg/kg/20-min solubilized in a 100% PEG-400 vehicle) were administered via three escalating 20-min infusions (0.011 mL/min) followed by a 1-hr post-treatment period. A blood sample was withdrawn at 20, 40, 60, and 120-minutes for analysis of plasma concentrations of the parent compound, and in the case of FTY720, also the phosphorylated metabolite, (S)-FTY720-P. Statistical significance (p<0.05) was based on a t-test comparing treatment change from baseline (baseline was defined as the period from −30 to 0 minutes) vs. vehicle controls change from baseline at each timepoint without adjustment for multiple comparisons. In a separate group of anesthetized rats in which left ventricular (LV) contractility was also recorded with a Millar pressure transducer introduced into the left ventricle, BAF312 was infused in the same dosing regimen as the studies described above (0.5, 1.5, 5.0 mg/kg/20-min solubilized in a 100% PEG-400 vehicle) and effects on LV dP/dtmax were recorded.

[2] = tested on: conscious, telemetry-instrumented rats; test: Telemetry-instrumented conscious rats, single oral dose hemodynamics; assay type: in vivo; details: conscious rat; for mean arterial pressure above baseline, 24-hr mean: vehicle 3.6±1.5
Experimental: (§1) Mean arterial pressure was assessed in conscious, freely moving male Sprague Dawley rats (n = 6–8/group; Charles River) instrumented with telemetry transmitters (DSI-Ponemah) and housed in metabolism cages as previously described, [26]. Tested compounds were solubilized in a 0.5% Methylcellulose/0.015% Tween 80 vehicle that was also dosed alone (p.o./QD, 5 mL/kg) as a control in the study. FTY720 was administered p.o. at 0.3, 1.0, 3.0, 10.0 mg/kg p.o. as a single dose or p.o./QD at 0.5, 1.5, and 5.0 mg/kg in a chronic study. BAF312 was administered p.o/QD at 0.3, 3.0, and 30 mg/kg as a single dose and in a chronic study. Mean arterial pressure and heart rate are shown as 1-hr and/or 24-hr mean values±SEM as described in the results. Blood samples in satellite rats were withdrawn at various timepoints as described in the results for analysis of plasma concentrations of the parent compound and, in the case of FTY720, also the phosphorylated metabolite, (S)-FTY720-P. Statistical analysis for the single-dose acute studies was based on one-way ANOVA to compare the treatment groups vs. vehicle for each time period after dosing (0–24 hrs, 24–48 hrs, and 48–72 hrs); statistical significance (p<0.05) was detected by Dunnett’s post-hoc test to compare treatment with vehicle controls. The statistical analysis in the chronic studies were based on one-way ANOVA with repeated measures to compare the treatment arms; statistical significance (p<0.05) was detected by Dunnett’s post-hoc test to compare treatment with vehicle controls.

[3] = Plasma concentrations in repeat-dosing study, satellite rats; assay type: in vivo, rat; details: for concentration at 0 h / concentration at 4 h / concentration at 8 h / concentration at 24 h: male, Sprague Dawley, rat, plasma, po, mean±SEM; for Plasma concentration at Tmax / Terminal plasma concentration at Tmax: satellite rats; for Plasma concentration at Tmax: day 1; for Terminal plasma concentration at Tmax: last day of study
Experimental: as §1

- concentration at 20 min ([1]; end of 0.1 mg/kg/20 min infusion): 54 ± 9 nM
- concentration at 40 min ([1]; end of 0.3 mg/kg/20 min infusion): 198 ± 13 nM
- concentration at 60 min ([1]; end of 1.0 mg/kg/20 min infusion): 375 ± 46 nM
- concentration at 120 min ([1]; end of 60-min post-treatment period): 121 ± 5 nM
- concentration at 0 h ([3]; 0.5 mg/kg/day, FTY720 0.5 mg/kg/d p.o., Terminal (last day)): 18 ± 2 nM
- concentration at 4 h ([3]; 0.5 mg/kg/day, FTY720 0.5 mg/kg/d p.o., Terminal (last day), 4 hr post-dose): 24 ± 3 nM
- concentration at 8 h ([3]; 0.5 mg/kg/day, FTY720 0.5 mg/kg/d p.o., Terminal (last day), 8 hr post-dose): 63 ± 37 nM
- concentration at 24 h ([3]; 0.5 mg/kg/day, FTY720 0.5 mg/kg/d p.o., Terminal (last day), 24 hr post-dose): 40 ± 27 nM
- concentration at 4 h ([3]; 0.5 mg/kg/day, FTY720 0.5 mg/kg/d p.o., Day 1, 4 hr post-dose): 9 ± 1 nM
- concentration at 8 h ([3]; 0.5 mg/kg/day, FTY720 0.5 mg/kg/d p.o., Day 1, 8 hr post-dose): 13 ± 2 nM
- concentration at 24 h ([3]; 0.5 mg/kg/day, FTY720 0.5 mg/kg/d p.o., Day 1, 24 hr post-dose): 8 ± 1 nM
- concentration at 0 h ([3]; 1.5 mg/kg/day, FTY720 1.5 mg/kg/d p.o., Terminal (last day)): 58 ± 7 nM
- concentration at 4 h ([3]; 1.5 mg/kg/day, FTY720 1.5 mg/kg/d p.o., Terminal (last day), 4 hr post-dose): 60 ± 6 nM
- concentration at 8 h ([3]; 1.5 mg/kg/day, FTY720 1.5 mg/kg/d p.o., Terminal (last day), 8 hr post-dose): 81 ± 4 nM
- concentration at 24 h ([3]; 1.5 mg/kg/day, FTY720 1.5 mg/kg/d p.o., Terminal (last day), 24 hr post-dose): 44 ± 5 nM
- concentration at 4 h ([3]; 1.5 mg/kg/day, FTY720 1.5 mg/kg/d p.o., Day 1, 4 hr post-dose): 45 ± 4 nM
- concentration at 8 h ([3]; 1.5 mg/kg/day, FTY720 1.5 mg/kg/d p.o., Day 1, 8 hr post-dose): 53 ± 9 nM
- concentration at 24 h ([3]; 1.5 mg/kg/day, FTY720 1.5 mg/kg/d p.o., Day 1, 24 hr post-dose): 34 ± 4 nM
- concentration at 0 h ([3]; 5 mg/kg/day, FTY720 5.0 mg/kg/d p.o., Terminal (last day)): 207 ± 27 nM
- concentration at 4 h ([3]; 5 mg/kg/day, FTY720 5.0 mg/kg/d p.o., Terminal (last day), 4 hr post-dose): 229 ± 21 nM
- concentration at 8 h ([3]; 5 mg/kg/day, FTY720 5.0 mg/kg/d p.o., Terminal (last day), 8 hr post-dose): 176 ± 37 nM
- concentration at 24 h ([3]; 5 mg/kg/day, FTY720 5.0 mg/kg/d p.o., Terminal (last day), 24 hr post-dose): 134 ± 21 nM
- concentration at 4 h ([3]; 5 mg/kg/day, FTY720 5.0 mg/kg/d p.o., Day 1, 4 hr post-dose): 98 ± 14 nM
- concentration at 8 h ([3]; 5 mg/kg/day, FTY720 5.0 mg/kg/d p.o., Day 1, 8 hr post-dose): 102 ± 4 nM
- concentration at 24 h ([3]; 5 mg/kg/day, FTY720 5.0 mg/kg/d p.o., Day 1, 24 hr post-dose): 17 ± 40 nM
- Plasma concentration at Tmax ([3]; FTY720 0.5 mg/kg/d p.o.): 13 ± 2 nM
- Terminal plasma concentration at Tmax ([3]; FTY720 0.5 mg/kg/d p.o.): 63 ± 37 nM
- Plasma concentration at Tmax ([3]; FTY720 1.5 mg/kg/d p.o.): 53 ± 9 nM
- Terminal plasma concentration at Tmax ([3]; FTY720 1.5 mg/kg/d p.o.): 81 ± 4 nM
- Plasma concentration at Tmax ([3]; FTY720 5.0 mg/kg/d p.o.): 120 ± 17 nM
- Terminal plasma concentration at Tmax ([3]; FTY720 5.0 mg/kg/d p.o.): 229 ± 21 nM
Structure (SMILES): CCCCCCCCc1ccc(CCC(N)(CO)CO)cc1 [FTY720]
- mean arterial pressure above baseline, 24-hr mean ([2]; FTY720 3 mg/kg single oral dose, day 1): 13.5±1.8 mmHg
- mean arterial pressure above baseline, 24-hr mean ([2]; FTY720 10 mg/kg single oral dose, day 1): 19.9±2.8 mmHg
- heart rate change from baseline, 24-hr mean ([2]; FTY720 10 mg/kg single oral dose, day 1, vehicle 15±3): −13±6 beats/min
- changes in heart rate vs vehicle after day 1 ([2]; FTY720 single oral dose, after day 1 up to 72 hours): not different from vehicle control rats
